Publication PMC3408606 (Thrombosis and haemostasis, 2011)
Like-named read-outs stand apart in the source and are kept apart here.

Legend:
[1] = target: T1, triplatin (Triatoma infestans, UniProt Q18NS7)
[2] = tested on: platelets; assay: Platelet aggregation; format: cell-based, human; details: for Effect on ADP-induced platelet aggregation: indometacin 50 μM
[3] = tested on: ApoD; assay: Isothermal titration calorimetry of ligand binding to ApoD; details: ITC, ApoD expressed in HEK293 cells
[4] = target: T1, triplatin; assay: biochemical

T1 sequence (Q18NS7 19-182 limits assumed): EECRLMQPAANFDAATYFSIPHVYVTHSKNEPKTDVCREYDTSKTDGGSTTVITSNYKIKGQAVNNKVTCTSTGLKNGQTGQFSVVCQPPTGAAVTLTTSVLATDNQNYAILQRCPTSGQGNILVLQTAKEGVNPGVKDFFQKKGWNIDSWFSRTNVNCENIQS

CCCCC/C=C\C/C=C\C[C@H](O)/C=C/C=C\CCCC(=O)O [9s-HETE]
Kd [1]: > 1000 nM

O=C(O)CCC/C=C\C/C=C\C/C=C\C/C=C\CCCCCO [20-HETE]
Binding to triplatin ([1]; ITC, Figure 3 or not shown): not observed

O=C(O)CCC/C=C\C[C@@H]1[C@H](CNNC(=O)Nc2ccccc2)[C@H]2CC[C@@H]1O2 [SQ29548]
Inhibition of collagen-induced platelet aggregation [2]: partial inhibition

CCCCC/C=C\C/C=C\C/C=C\C/C=C\CCCC(=O)O [Arachidonic acid, arachidonic acid]
Binding to ApoD [3]: failed to detect binding | Binding to triplatin ([1]; ITC, Figure 3 or not shown): not observed

CCCCC[C@H](O)/C=C/[C@H]1C(=O)C=C[C@@H]1C/C=C\CCCC(=O)O [PGJ2]
Kd [1]: 111 ± 3.4 nM | TΔS [1]: -1.49 kcal/mol | ΔG [1]: -9.65 kcal/mol | ΔH [1]: -11.14 ± 0.38 kcal/mol

CCCCC[C@H](O)/C=C/[C@@H]1[C@@H](C/C=C\CCCC(=O)O)[C@H]2CO[C@@H]1C2 [U46619]
Kd [1]: 294 ± 51 nM | TΔS [1]: -2.46 kcal/mol | ΔG [1]: -9.06 kcal/mol | ΔH [1]: -11.52 ± 0.38 kcal/mol

COc1ccc2c(c1)c(CC(=O)O)c(C)n2C(=O)c1ccc(Cl)cc1 [indometacin]
Effect on ADP-induced platelet aggregation ([2]; ADP 1 μM (low dose)): not affected | Effect on ADP-induced platelet aggregation ([2]; ADP 10 μM): attenuated | Inhibition of collagen-induced platelet aggregation ([2]; collagen 6.6 μg/ml, inhibitor alone: indometacin 50 μM, SQ29548 0.2 μM, triplatin 1 μM): partial inhibition

CCCCC[C@H](O)/C=C/[C@@H]1[C@@H](C/C=C\CCCC(=O)O)[C@@H](O)C[C@H]1O [PGF2α]
Binding to ApoD [3]: failed to detect binding | ΔG ([1]; calculated free energy, ITC 30°C, n.d. = no binding detected): -9.25 kcal/mol | Kd [4]: 215 ± 10 nM

Nc1ncnc2c1ncn2[C@@H]1O[C@H](COP(=O)(O)OP(=O)(O)O)[C@@H](O)[C@H]1O [ADP, adenosine diphosphate]
Binding to triplatin ([1]; ITC, Figure 3 or not shown): not observed

CCCCC[C@H](O)/C=C/[C@H]1OC(O)C[C@H](O)[C@@H]1C/C=C\CCCC(=O)O (stereo partly shown) [TXB2]
Kd [1]: 355 ± 6.7 nM | TΔS [1]: -2.58 kcal/mol | ΔG [1]: -8.95 kcal/mol | ΔH [1]: -11.53 ± 0.92 kcal/mol

CCCCC[C@H](O)/C=C/[C@H]1[C@H](O)CC(=O)[C@@H]1CCCCCCC(=O)O [PGE1]
Binding to triplatin [1]: not observed

CCCCC[C@H](O)/C=C/C=C\C/C=C\C/C=C\CCCC(=O)O [15s-HETE]
Kd [4]: > 1000 nM

CCCCC/C=C\C[C@H](O)/C=C/C=C\C/C=C\CCCC(=O)O [12(S)-HETE]
Binding to triplatin ([1]; ITC, Figure 3 or not shown): not observed

CCCCC[C@H](O)/C=C/[C@H]1CC2CC(C2)[C@@H]1C/C=C\CCCC(=O)O [cTXA2]
Binding to ApoD [3]: failed to detect binding | Kd [1]: 369 ± 103 nM | TΔS [1]: -3.90 kcal/mol | ΔG [1]: -8.93 kcal/mol | ΔH [1]: -12.83 ± 0.73 kcal/mol

CCCCC/C=C\C\C=C/C=C/C=C/[C@@H](SC[C@H](NC(=O)CC[C@H](N)C(=O)O)C(=O)NCC(=O)O)[C@@H](O)CCCC(=O)O [LTC4]
Binding to triplatin [1]: not observed

NCCc1c[nH]cn1 [Histamine, histamine]
Binding to triplatin ([1]; ITC, Figure 3 or not shown): not observed
